One experiment has as its target T1, DPP-IV (Homo sapiens, UniProt P27487).
T1 construct: Cell extract is prepared from cells solubilized in 10 mM Tris-HCl; host or cells: Caco-2
As to the kind of experiment: Caco-2 DPP-IV Assay (inhibition of DPP-IV activity from human colonic carcinoma cell extracts). In kind it is biochemical. Conditions: human Caco-2 cell extract, H-Alanine-Proline-pNA substrate, pH 7.4, room temperature, 10 minutes.

The next experiment deals with T2, rat plasma DPP-IV (Rattus norvegicus, UniProt P14740).
T2 construct: DPP-IV activity in human and rat plasma; from tissue; host or cells: rat plasma
As to the kind of experiment: rat plasma DPP-IV inhibition assay. In kind it is biochemical. Conditions: H-Glycine-Proline-AMC substrate, pH 7.8, room temperature, 20 min.

In a further experiment the target is T3, human plasma DPP-IV (Homo sapiens, UniProt P27487).
T3 construct: DPP-IV activity in human and rat plasma; from tissue; host or cells: human plasma
As to the kind of experiment: human plasma DPP-IV inhibition assay. In kind it is biochemical. Conditions: H-Glycine-Proline-AMC substrate, pH 7.8, room temperature, 20 min.

Another experiment deals with insulin resistant rats. As to the kind of experiment: early insulin response to an oral glucose challenge in insulin resistant rats. The experiment is classed as in vivo, Male Sprague-Dawley rats. Conditions: 10 μmol/kg orally in CMC, high fat diet rats, oral glucose 1 g/kg 30 minutes after compound; % increase of the mean of the control animals.

Where a name gives a salt, the structure may show the parent alone.

T2 sequence (P14740 37-767 limits assumed): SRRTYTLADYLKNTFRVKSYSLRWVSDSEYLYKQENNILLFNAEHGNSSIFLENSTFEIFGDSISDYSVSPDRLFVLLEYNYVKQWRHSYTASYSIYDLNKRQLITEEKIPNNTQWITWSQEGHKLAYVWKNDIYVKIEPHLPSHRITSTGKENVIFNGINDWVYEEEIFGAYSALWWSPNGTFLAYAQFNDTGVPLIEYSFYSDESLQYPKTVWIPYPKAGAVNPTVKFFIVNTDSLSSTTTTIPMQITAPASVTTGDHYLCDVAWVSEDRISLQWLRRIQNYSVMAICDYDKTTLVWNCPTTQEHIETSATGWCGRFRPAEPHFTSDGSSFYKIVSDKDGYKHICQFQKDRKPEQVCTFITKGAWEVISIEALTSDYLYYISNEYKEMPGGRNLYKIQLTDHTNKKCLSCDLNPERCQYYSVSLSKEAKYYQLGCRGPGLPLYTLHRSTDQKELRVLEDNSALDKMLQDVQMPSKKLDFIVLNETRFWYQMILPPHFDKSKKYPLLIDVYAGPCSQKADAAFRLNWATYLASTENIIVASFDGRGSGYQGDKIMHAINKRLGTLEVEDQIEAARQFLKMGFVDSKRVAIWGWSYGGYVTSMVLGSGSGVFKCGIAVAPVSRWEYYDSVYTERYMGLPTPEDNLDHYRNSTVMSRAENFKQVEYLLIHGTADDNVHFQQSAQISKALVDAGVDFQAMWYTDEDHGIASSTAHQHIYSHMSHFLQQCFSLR
T1 sequence (P27487 whole entry): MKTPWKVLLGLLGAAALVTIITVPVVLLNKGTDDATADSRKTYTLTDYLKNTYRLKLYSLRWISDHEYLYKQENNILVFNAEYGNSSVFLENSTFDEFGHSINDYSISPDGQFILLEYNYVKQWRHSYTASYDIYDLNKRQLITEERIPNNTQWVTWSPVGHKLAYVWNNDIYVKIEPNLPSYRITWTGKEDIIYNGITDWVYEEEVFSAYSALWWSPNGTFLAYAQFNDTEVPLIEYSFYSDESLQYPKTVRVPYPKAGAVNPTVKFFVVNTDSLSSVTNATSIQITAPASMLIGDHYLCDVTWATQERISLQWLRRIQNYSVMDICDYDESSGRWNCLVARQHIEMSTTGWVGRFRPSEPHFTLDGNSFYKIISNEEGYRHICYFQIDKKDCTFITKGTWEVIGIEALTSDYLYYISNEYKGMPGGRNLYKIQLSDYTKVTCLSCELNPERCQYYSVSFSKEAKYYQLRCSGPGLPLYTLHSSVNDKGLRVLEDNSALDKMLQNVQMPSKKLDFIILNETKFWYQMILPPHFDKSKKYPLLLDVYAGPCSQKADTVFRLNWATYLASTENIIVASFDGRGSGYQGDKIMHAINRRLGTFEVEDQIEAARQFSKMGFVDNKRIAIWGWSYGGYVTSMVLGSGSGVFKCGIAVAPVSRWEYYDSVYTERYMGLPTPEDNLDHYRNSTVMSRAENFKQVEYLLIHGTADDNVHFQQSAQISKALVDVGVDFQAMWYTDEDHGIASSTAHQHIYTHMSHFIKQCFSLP
T3 sequence (P27487 39-766 limits assumed): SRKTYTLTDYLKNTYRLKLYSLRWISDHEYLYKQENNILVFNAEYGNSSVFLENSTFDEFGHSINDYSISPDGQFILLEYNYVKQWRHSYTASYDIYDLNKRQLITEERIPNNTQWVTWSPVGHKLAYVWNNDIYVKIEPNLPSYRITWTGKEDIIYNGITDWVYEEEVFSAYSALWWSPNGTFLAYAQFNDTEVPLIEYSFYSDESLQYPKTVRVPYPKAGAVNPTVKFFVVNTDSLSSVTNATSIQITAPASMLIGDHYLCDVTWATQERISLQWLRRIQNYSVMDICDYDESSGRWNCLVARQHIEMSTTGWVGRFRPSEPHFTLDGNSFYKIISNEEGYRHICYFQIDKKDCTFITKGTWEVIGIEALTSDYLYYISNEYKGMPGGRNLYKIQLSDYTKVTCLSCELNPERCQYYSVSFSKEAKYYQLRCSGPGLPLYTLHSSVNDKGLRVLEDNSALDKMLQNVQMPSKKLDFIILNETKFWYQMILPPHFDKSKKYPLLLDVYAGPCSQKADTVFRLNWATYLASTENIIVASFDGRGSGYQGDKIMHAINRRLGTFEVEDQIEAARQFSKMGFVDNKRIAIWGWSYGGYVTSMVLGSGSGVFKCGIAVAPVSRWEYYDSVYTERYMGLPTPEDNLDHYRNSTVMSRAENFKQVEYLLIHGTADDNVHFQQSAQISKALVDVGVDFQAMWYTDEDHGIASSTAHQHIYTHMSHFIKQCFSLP
Experimental for rat plasma DPP-IV: Briefly, five μl of plasma are added to 96-well flat-bottom microtiter plates (Falcon), followed by the addition of 5 μl of 80 mM MgCl2 in incubation buffer (25 mM HEPES, 140 mM NaCl, 1% RIA-grade BSA, pH 7.8). After a 5 min. incubation at room temperature, the reaction is initiated by the addition of 10 μl of incubation buffer containing 0.1 mM substrate (H-Glycine-Proline-AMC; AMC is 7-amino-4-methylcoumarin). The plates are covered with aluminum foil (or kept in the dark) and incubated at room temperature for 20 min. […] A fluorescence-concentration curve of free AMC is generated using 0-50 μM solutions of AMC in assay buffer. The curve generated is linear and is used for interpolation of substrate consumption (catalytic activity in nmoles substrate cleaved/min). As with the previous assay, the potency of the test compounds as DPP-IV inhibitors, expressed as IC50, is calculated from 8-point, dose-response curves using a 4 parameter logistic function.

With `CC1(C)C2CCC(CNCC(=O)N3CCC[C@H]3C#N)C1C2` (single isomer, unassigned) [Ex. 25, Pyrrolidine, 1-[[(6,6-dimethylbicyclo[3.1.1]hept-2-yl)methyl]amino]acetyl-2-cyano-[1S[1α,2α(S*),5α]]-(S)--, monohydrochloride], the IC50 is 140 nM against DPP-IV, 140 nM against rat plasma DPP-IV and 110 nM against human plasma DPP-IV.
As to `N#Cc1ccc(NCCNCC(=O)N2CCC[C@H]2C#N)nc1` [Ex. 3, 1-[2-[(5-cyanopyridin-2-yl)amino]ethylamino]acetyl-2-cyano-(S)-pyrrolidine dihydrochloride], in the experiment on insulin resistant rats, the “Increase of Insulin Response at 10 μmol/kg” value (“Increase of Insulin Response” below) is listed as 66%.
Same read-out and setting: then `N#C[C@@H]1CCCN1C(=O)CNC1(CO)CCCC1` [Ex. 5, 1-[(1-hydroxymethylcyclopent-1-yl)amino]acetyl-2-cyano-(S)-pyrrolidine], with 108%.
In turn, `N#C[C@@H]1CCCN1C(=O)CNCCNc1nccc(Cl)n1` [Ex. 7A, 1-[2-[(4-chloropyrimidin-2-yl)amino]ethylamino]acetyl-2-cyano-(S)-pyrrolidine] returned an IC50 at DPP-IV of 165 nM.
Still for that read-out and setting: then `N#C[C@@H]1CCCN1C(=O)CNCCNc1ncccc1Cl` [Ex. 7B, 1-[2-[(3-chloropyridin-2-yl)amino]ethylamino]acetyl-2-cyano-(S)-pyrrolidine], with 175 nM; and `N#C[C@@H]1CCCN1C(=O)CNCCNc1nccc(C(F)(F)F)n1` [Ex. 7C], with 290 nM; and `N#C[C@@H]1CCCN1C(=O)CNCCc1ccccc1Cl` [Ex. 7D, 1-[(2-chlorophenyl)ethylamino]acetyl-2-cyano-(S)-pyrrolidine], with 382 nM.
Turning to `N#C[C@@H]1CCCN1C(=O)CNCCNc1ccc([N+](=O)[O-])cn1` [Ex. 8, 1-[2-[(5-nitropyridin-2-yl)amino]ethylamino]acetyl-2-cyano-(S)pyrrolidine], in the experiment with insulin resistant rats, the “Increase of Insulin Response” value is 144%.
For the molecule `N#C[C@@H]1CCCN1C(=O)CNCCNc1ncc(C(F)(F)F)cc1Cl` [Ex. 9A, 1-[2-[(3-chloro-5-trifluoromethylpyridin-2-yl)amino]ethylamino]acetyl-2-cyano-(S)-pyrrolidine], on DPP-IV, the IC50 is 990 nM.
`N#C[C@@H]1CCCN1C(=O)CNCCNc1ncc(Cl)cc1Cl` [Ex. 9C, 1-[2-[(3,5-dichloropyridin-2-yl)amino]ethylamino]acetyl-2-cyano-(S)-pyrrolidine] registered an IC50 against DPP-IV of 295 nM.
The same measure, in the same setting: then `COc1cc(Br)c(CCNCC(=O)N2CCC[C@H]2C#N)cc1OC` [Ex. 11, 1-[2-(2-bromo-4,5-dimethoxyphenyl)ethylamino]acetyl-2-cyano-(S)-pyrrolidine], with 215 nM.
With `CC(C)OCCCNCC(=O)N1CCC[C@H]1C#N` [Ex. 12, 1-[3-(isopropoxy)propylamino]acetyl-2-cyano-(S)-pyrrolidine monohydrochloride], the IC50 was found to be 279 nM against DPP-IV, 38 nM on rat plasma DPP-IV and 95 nM at human plasma DPP-IV. In the experiment with insulin resistant rats, the “Increase of Insulin Response” value is on record as 59%.
For `N#C[C@@H]1CCCN1C(=O)CNCCCN1CCCC1=O` [Ex. 14, 1-[3-(2-oxo-pyrrolidin-1-yl)propylamino]acetyl-2-cyano-(S)-pyrrolidine monohydrochloride], the IC50 against DPP-IV amounted to 110 nM; at rat plasma DPP-IV, 24 nM; against human plasma DPP-IV it was 95 nM.
On the same counts, the results for `CCOc1ccc(CCNCC(=O)N2CCC[C@H]2C#N)cc1` [Ex. 16, Pyrrolidine, 1-[[2-(4-ethoxyphenyl)ethyl]amino]acetyl-2-cyano-, (S)--, monohydrochloride] are 130 nM, 60 nM and 170 nM.
With `N#C[C@@H]1CCCN1C(=O)CN[C@@H]1CCN(Cc2ccccc2)C1` [Ex. 17, Pyrrolidine, 1-[(1-phenylmethyl-3-pyrrolidinyl)amino]acetyl-2-cyano-, (S)--(R)--, dihydrochloride], the values for the IC50 at DPP-IV, on rat plasma DPP-IV and on human plasma DPP-IV were 60 nM, 120 nM and 250 nM, respectively.
On the same counts, the results for `COc1ccc(CCNCC(=O)N2CCC[C@H]2C#N)cc1` [Ex. 18, Pyrrolidine, 1-[[2-(4-methoxyphenyl)ethyl]amino]acetyl-2-cyano-, (S)--, monohydrochloride] are 100 nM, 70 nM and 160 nM.
On the same counts, the results for `COc1cccc(CCNCC(=O)N2CCC[C@H]2C#N)c1` [Ex. 19, Pyrrolidine, 1-[[2-(3-methoxyphenyl)ethyl]amino]acetyl-2-cyano-, (S)--, monohydrochloride] are 120 nM, 50 nM and 180 nM.
On the same counts, the results for `CN(CCCNCC(=O)N1CCC[C@H]1C#N)c1ccccc1` [Ex. 22, Pyrrolidine, 1-[[3-[(phenyl)(methyl)amino]propyl]amino]acetyl-2-cyano-, (S)--, dihydrochloride] are 150 nM, 60 nM and 170 nM.
As to `COc1ccc(CCNCC(=O)N2CCC[C@H]2C#N)cc1OC` [Ex. 23, Pyrrolidine, 1-[2-[(3,4-dimethoxyphenyl)ethyl]amino]acetyl-2-cyano-, (S)--, monohydrochloride], the results for the half-maximal inhibitory concentration (IC50) against DPP-IV, against rat plasma DPP-IV and at human plasma DPP-IV were 50 nM, 40 nM and 40 nM, respectively.
Take `COc1ccc(OC)c(CCNCC(=O)N2CCC[C@H]2C#N)c1` [Ex. 26, Pyrrolidine, 1-[[2-(2,5-dimethoxyphenyl)ethyl]amino]acetyl-2-cyano-. (S)--, monohydrochloride]: the half-inhibitory concentration (IC50) at DPP-IV turned out to be 170 nM; at rat plasma DPP-IV it was 70 nM; against human plasma DPP-IV, 240 nM.
The matching figures for `N#C[C@@H]1CCCN1C(=O)CNCCC1=CCCCC1` [Ex. 27, Pyrrolidine, 1-[[2-(1-cyclohexenyl-1-yl)ethyl]amino]acetyl-2-cyano-, (S)--, monohydrochloride]: 310 nM, 160 nM and 150 nM.
On the same counts, the results for `N#C[C@@H]1CCCN1C(=O)CNCCc1ccccn1` [Ex. 30, Pyrrolidine, 1-[[2-(2-pyridinyl)ethyl]amino]acetyl-2-cyano-, (S)--, dihydrochloride] are 650 nM, 90 nM and 80 nM.
The matching figures for `N#C[C@@H]1CCCN1C(=O)CNCc1ccccc1Sc1ccccc1CO` [Ex. 35, Pyrrolidine, 1-[[[2-[(2-hydroxymethyl)phenyl]thio]phenylmethyl]amino]acetyl-2-cyano-,(S)--, monohydrochloride]: 130 nM, 340 nM and 1090 nM.
Turning to `COc1ccccc1CCNCC(=O)N1CCC[C@H]1C#N` [Ex. 36, Pyrrolidine, 1-[[2-(2-methoxyphenyl)ethyl]amino]acetyl-2-cyano-, (S)--, monohydrochloride], the IC50 on DPP-IV is 160 nM; against rat plasma DPP-IV it was 80 nM; on human plasma DPP-IV, 170 nM.
On the same counts, the results for `N#C[C@@H]1CCCN1C(=O)CNCCc1ccc(Cl)cc1Cl` [Ex. 39, Pyrrolidine, 1-[[2-(2,4-dichlorophenyl)ethyl]amino]acetyl-2-cyano-, (S), monohydrochloride] are 380 nM, 200 nM and 220 nM.
On the same counts, the results for `C[C@H](NCC(=O)N1CCC[C@H]1C#N)[C@H](O)c1ccccc1` [Ex. 41, Pyrrolidine, 1-[(2-hydroxy-2-phenylethyl)amino]acetyl-2-cyano-[2S-[1R*,2S*]-monohydrochloride] are 140 nM, 50 nM and 100 nM.
On the same counts, the results for `N#C[C@@H]1CCCN1C(=O)CNCCc1ccccc1F` [Ex. 42, Pyrrolidine, 1-[[2-(2-fluorophenyl)ethyl]amino]acetyl-2-cyano-, (S)--, monohydrochloride] are 240 nM, 180 nM and 140 nM.
Consider `COc1cc(CCNCC(=O)N2CCC[C@H]2C#N)cc(OC)c1` [Ex. 46, Pyrrolidine, 1-[2-[(3,5-dimethoxyphenyl)ethyl]amino]acetyl-2-cyano-, (S)--, monohydrochloride], for which the IC50 against DPP-IV was determined as 150 nM; at rat plasma DPP-IV, 60 nM; against human plasma DPP-IV, 280 nM.
The matching figures for `N#C[C@@H]1CCCN1C(=O)CNC1CCN(Cc2ccccc2)CC1` [Ex. 66, Pyrrolidine, 1-[(1-phenylmethyl-4-piperidinyl)amino]acetyl-2-cyano-, (S)--, monohydrochloride]: 60 nM, 40 nM and 130 nM.

In general, IC50 refers to the midpoint of a concentration-inhibition curve.

(Values after patent US6124305A, “Use of N-(substituted glycyl)-2-cyanopyrrolidines in inhibiting dipeptidyl peptidase-IV” (Novartis AG, priority 1999, dated 2000).)
